Like-named read-outs stand apart in the source and are kept apart here.
Key:
MCF-7 cells [1] = test: SRB in vitro cytotoxicity assay, MCF-7; type: cell-based, human; details: for IC50: Homo sapiens, MCF7, SRB assay, read-out: IC50 (dose causing 50% inhibition) of MCF-7 cells
Description: (§1) Human breast cancer cell line [MCF-7, ER^+ (ATCC, HTB-22TM)] was cultured in Dulbecco's Modified Eagle Medium (DMEM) (Invitrogen, Carlsbad, CA, USA) supplemented with 10% Fetal bovine serum (FBS), 100 U/mL of penicillin, 0.1 mg/mL streptomycin, and 0.01 mg/mL insulin. Normal mammary epithelial cell line [MCF-10A (ATCC® CRL-10317)] was grown in Mammary Epithelium Basal Medium (MEBM) (Lonza, Walkersville, MD, USA). Both MCF-7 and MCF-10A cells were maintained in a humidified incubator at 37°C with 5% CO2. All the cell lines and 10% FBS were purchased from the American type cell culture (ATCC), Rockville, MD, USA. All chemicals were purchased from Sigma-Aldrich (St. Louis, MO, USA) unless otherwise specified.
(§2) MCF-7 and MCF-10A cells were trypsinized using […] trypsin/EDTA, plated in cell culture treated 96-well plates (5 x 10^3 cells/ well) and incubated for 24 h. After incubation, cells were treated with govaniadine (1, 2, 4, 8, or 16 μM) and maintained at 37°C with CO2 for 24, 48, or 72 h. After the incubation period, Sulforhodamine B (SRB) assay was performed as described previously to assess cell viability. Absorbance was read at optical density (OD) 540 nm (Synergy™ HT, BioTek, USA) and percentage cell viability was calculated. Negative controls contained only 0.1% DMSO and medium whereas paclitaxel was used as the positive control.

MCF-10A cells = test: SRB in vitro cytotoxicity assay, MCF-10A; type: cell-based; details: Homo sapiens, read-out: IC50 against MCF-10A cells
Description: as §1, §2

caspase-7 = test: Caspase-Glo 3/7 assay of caspase 7 activity in MCF-7 cells; type: cell-based, human; details: 1 μM (P<0.05) and 2 μM (P<0.01), 24 h, vs control
Description: MCF-7 cells (2 x 10^5 cells/mL) were seeded in 96-well plates and maintained for 24 h at 37°C in 5% CO2. After 24 h, cells were exposed to govaniadine (1 and 2 μM) for further 24 h. Control cells were treated with 0.1% DMSO. Caspase-Glo® 3/7 assay (Promega, Madison, WI, USA) was used to measure caspase 7 activity according to the manufacturer's instructions, and luminescence was measured using a luminescence plate reader (Synergy™ HT, BioTek, USA).

p53 mRNA = test: RT-qPCR p53 mRNA expression in MCF-7 cells; type: cell-based, human; details: 24 h incubation
Description: (§3) Cells were grown in T25 flasks (2 x 10^5 cells/mL) for 24 h at 37°C in 5% CO2 and treated with govaniadine (1 and 2 μM) in triplicate and incubated for further 24 h. Control cells were treated with 0.1% DMSO. After 24 h, cells were harvested and total RNA was extracted with TRIzol® Reagent (Invitrogen; Thermo Fisher Scientific, Inc., Carlsbad, CA, USA) according to the manufacturer's protocol. cDNA synthesis and RT-qPCR were performed as described previously. RT-qPCR was performed in Stratagene Mx3000P real time PCR machine using MESA Green qPCR Master Mix Plus for SYBR Assay (Eurogentec, Seraing, Liège, Belgium). Data were normalized to an internal reference gene GAPDH, and relative gene expression was assessed using the comparative Ct method (2^−ΔΔCt).

Bax mRNA = test: RT-qPCR Bax mRNA expression in MCF-7 cells; type: cell-based, human; details: 24 h incubation
Description: as §3

Survivin mRNA = test: RT-qPCR survivin mRNA expression in MCF-7 cells; type: cell-based, human; details: 24 h incubation
Description: as §3

MCF-7 cells [2] = test: Annexin V/PI flow cytometry apoptosis detection; type: cell-based, human; details: 24 h; for early apoptotic cells: upper left quadrant; for late apoptotic cells: upper right quadrant
Description: MCF-7 cells (2x10^5 cell/mL) cultured in T25 cell culture flasks for 24 h at 37°C in 5% CO2 were exposed to govaniadine (4, 8, and 16 μM) for further 24 h. Control cells were treated with 0.1% DMSO. After 24 h, apoptosis mediated by the govaniadine on MCF-7 cells was detected by the Annexin V/ Propidium Iodide (PI) apoptosis detection kit (Santa Cruz, Texas, USA) according to the manufacturer's instructions by using a Partec Cyflow® Cube 6 Flow Cytometer. The data was analyzed with De Novo FCS Express version 4 software, and all experiments to detect apoptosis were done in triplicate.

MCF-7 cells [3] = test: DNA fragmentation analysis (gel electrophoresis); type: cell-based, human; details: MCF-7 cells, 4, 8, 16 μM, 48 or 72 h
Description: MCF-7 cells (2x10^5 cell/mL) were treated with 4, 8, and 16 μM doses of govaniadine incubated for 48 or 72 h, respectively. Medium containing 0.1% DMSO and thymoquinone were used as negative and positive controls, respectively. After the incubation period, DNA fragmentation was analyzed as described by. Gel electrophoresis was carried out with extracted DNA and visualized under UV light to assess the effect on DNA fragmentation (Quantum-ST4 1100/20 M; Fisher Biotec Pty Ltd., Wembley, Australia) following electrophoresis on a 2.0% agarose gel stained with ethidium bromide (EB).

MCF-7 cells [4] = test: Reactive oxygen species (NBT) assay; type: cell-based, human; details: 1 and 2 μM, 24 h, vs control
Description: MCF-7 cells were seeded (2x10^5 cell/mL) in 96-well plates for 24 h at 37°C in 5% CO2. After 24 h, MCF-7 cells were treated with govaniadine (1 and 2 μM) in triplicate and incubated for 24 h. Control cells were treated with 0.1% DMSO. An assay for the intracellular conversion of nitro blue tetrazolium (NBT) to formazan by superoxide anion was used to measure the generation of reactive oxygen species in cells. NTB was subsequently added at a final concentration of 1.2 mM to the wells and incubated in the dark for 1 h at 37°C. The formazan content of the cells was then solubilized with […] of DMSO, and the absorbance was measured at OD 630 nm (Synergy™ HT Multi-Mode Microplate Reader).

MCF-7 cells [5] = test: Intracellular glutathione (GSH) measurement; type: cell-based, human; details: 1 and 2 μM, 24 h, vs control
Description: (§4) MCF-7 cells were seeded (2x10^5 cell/mL) in 24-well plates and maintained for 24 h at 37°C in 5% CO2. Then the cells were exposed to different concentrations of govaniadine (1 and 2 μM) for further 24 h. Control cells were treated with 0.1% DMSO. After 24 h, cells were trypsinized and pelleted. Cell suspension of approximately 10^6 cells per mL in an appropriate buffer was prepared and homogenized using sonication in ice. Cell homogenate was transferred to 1.5 mL eppendorf tubes and centrifuged at 15,000 rpm for 10 min at 4°C. The resulting supernatant (cell lysate) was transferred to a new 1.5 mL micro centrifuge tube and kept on ice. Total amount of protein present in the cell lysate was determined using bovine serum albumin (BSA) as the standard. Reduced GSH was estimated as described previously. The activity of GST was determined as described by. Intracellular GSH and GST levels were expressed as μM/mg of cell lysate protein.

MCF-7 cells [6] = test: Intracellular glutathione S-transferase (GST) measurement; type: cell-based, human; details: 1 and 2 μM, 24 h, vs control
Description: as §4

MCF-7 cells [7] = test: Cell morphology by phase contrast light microscopy; type: cell-based, human; details: 1-16 μM, 24, 48 and 72 h
Description: To determine the effect of govaniadine on the morphology of MCF-7 cells, cells (2x10^5 cells/mL) maintained in DMEM for 24 h were exposed to different concentrations (1, 2, 4, 8, and 16 μM) of govaniadine for further 24, 48, or 72 h at 37°C in 5% CO2. Control cells were treated with 0.1% DMSO. After the incubation period, morphological changes of the cells were observed and photographed on an inverted phase contrast microscope (Olympus CKX41SF, Japan).

MCF-7 cells [8] = test: Cell morphology and nuclear changes by AO/EB and Hoechst staining; type: cell-based, human; details: 2-16 μM, 24 h
Description: MCF-7 cells harvested by trypsinization upon reaching 70-80% confluence were seeded (5x10^4 cells/well) on cell culture treated cover slips placed in a 24-well cell culture plate and exposed to different concentrations (2, 4, 8, and 16 μM) of govaniadine for 24 h at 37°C in 5% CO2. Control cells were treated with 0.1% DMSO. After 24 h, cells were fixed with 4% formaldehyde, and AO/EB solution (10 μL) and Hoechst stain (0.005 mg/mL, 10 μL) were added for 2–5 min. Cells were then observed under a fluorescence microscope (Olympus Co., Tokyo, BX51TRF, Japan).

**Q.** What does the source list for `COc1ccc2c(c1O)C1Cc3cc4c(cc3CN1CC2)OCO4` (stereo not drawn) [govaniadine]?
**A.** IC50 (MCF-7 cells [1]; 24 h postincubation): 3.05 ± 0.27 µM; IC50 (MCF-7 cells [1]; 48 h postincubation): 2.52 ± 0.31 µM; IC50 (MCF-7 cells [1]; 72 h postincubation): 1.6 ± 0.23 µM; Selectivity of cytotoxicity, MCF-7 versus MCF-10A cells (MCF-7 cells [1]; comparison of IC50 values in MCF-7 and MCF-10A with reference drug): more selective towards MCF-7 cells than the paclitaxel; IC50 (MCF-10A cells; 24 h postincubation): 269 ± 0.25 µM; IC50 (MCF-10A cells; 48 h postincubation): 223.4 ± 0.32 µM; IC50 (MCF-10A cells; 72 h postincubation): 194.9 ± 0.24 µM; Caspase-7 activity (caspase-7): activated significantly; p53 mRNA fold change (p53 mRNA; 1 μM): 11.37 fold; p53 mRNA fold change (p53 mRNA; 2 μM): 15.42 fold; Bax mRNA fold change (Bax mRNA; 1 μM): 5.07 fold; Bax mRNA fold change (Bax mRNA; 2 μM): 11.66 fold; survivin mRNA fold increase (Survivin mRNA; 1 μM): 9.08 fold; survivin gene expression (Survivin mRNA; 2 μM): not regulated; early apoptotic cells (MCF-7 cells [2]; 4 μM): 3.31%; late apoptotic cells (MCF-7 cells [2]; 4 μM): 11.15%; early apoptotic cells (MCF-7 cells [2]; 16 μM): 7.33%; late apoptotic cells (MCF-7 cells [2]; 16 μM): 41.42%; viability at 4 µM (MCF-7 cells [2]; Homo sapiens, MCF7, 4 μM, lower left quadrant, read-out: intact viable cells): 78.6%; viability at 8 µM (MCF-7 cells [2]; Homo sapiens, MCF7, 8 μM, lower left quadrant, read-out: intact viable cells): 61.1%; viability at 16 µM (MCF-7 cells [2]; Homo sapiens, MCF7, 16 μM, lower left quadrant, read-out: intact viable cells): 36.8%; DNA fragmentation (MCF-7 cells [3]): DNA fragmentation in a time- and dose-dependent manner; ROS production (MCF-7 cells [4]): dose-dependent significant (p<0.05) increase; Intracellular GSH level (MCF-7 cells [5]): decreased significantly; GST level (MCF-7 cells [6]): increased significantly; Morphological changes (phase contrast microscopy) (MCF-7 cells [7]): increased the number of apoptotic cells; Nuclear changes (Hoechst 33258 staining) (MCF-7 cells [8]): Nuclei with brighter hypercondensed chromatin

**Q.** Which IC50 (MCF-7 cells [1]; 24 h postincubation) does the source give for `CC(=O)O[C@H]1C(=O)[C@@]2(C)[C@H]([C@H](OC(=O)c3ccccc3)[C@]3(O)C[C@H](OC(=O)[C@H](O)[C@@H](NC(=O)c4ccccc4)c4ccccc4)C(C)=C1C3(C)C)[C@]1(OC(C)=O)CO[C@@H]1C[C@@H]2O` [paclitaxel, reference compound] here?
**A.** 2.21 ± 0.15 µM

**Q.** And the IC50 (MCF-7 cells [1]; 48 h postincubation)?
**A.** 0.13 ± 0.05 µM

**Q.** What about the IC50 (MCF-7 cells [1]; 72 h postincubation) of the same molecule?
**A.** 0.0089 ± 0.006 µM

**Q.** What about the IC50 (MCF-10A cells; 24 h postincubation) of the same molecule?
**A.** 11.9 ± 1.5 µM

**Q.** What about the IC50 (MCF-10A cells; 48 h postincubation) of the same molecule?
**A.** 6.06 ± 2.45 µM

**Q.** And the IC50 (MCF-10A cells; 72 h postincubation)?
**A.** 3.11 ± 1.98 µM
